{
  "source": "paper PMC6698915",
  "about": "(Cancer chemotherapy and pharmacology, 2015)",
  "origin": "cited, not measured here",
  "tested_on": "patients with locally advanced (M0) head and neck cancer",
  "details": "with cisplatin and docetaxel 75 mg/m^2 q21 days, pegfilgrastim, previously untreated; cited from earlier work",
  "data": [
    {"smiles": "CO[C@H]1C[C@@H]2CC[C@@H](C)[C@@](O)(O2)C(=O)C(=O)N2CCCC[C@H]2C(=O)O[C@H]([C@H](C)C[C@@H]2CC[C@@H](OCCO)[C@H](OC)C2)CC(=O)[C@H](C)/C=C(\\C)[C@@H](O)[C@@H](OC)C(=O)[C@H](C)C[C@H](C)/C=C/C=C/C=C/1C", "note": "[everolimus]", "values": [
      {"measurement": "escalation to full dose of daily everolimus", "value": "not possible to escalate to full dose of daily everolimus due to dose-limiting neutropenia"}
    ]}
  ]
}
